# Laboratory results: patent US9340590B2 (priority 2011, dated 2016)
# Like-named read-outs stand apart in the source and are kept apart here. Positions of bridges follow the written chain, without caps; N, C: chain ends. Non-standard residues stand in square brackets, D forms with d. Residues, ends and D or L forms follow the SMILES beside them. 1Nal = N[C@@H](Cc1cccc2ccccc12)C(=O)O
# Columns and labels:
# Experiment in all cases: cell-based
# [1] = target: hNav1.3 (Homo sapiens, UniProt Q9NY46); settings: IonWorks Quattro, read-out: IWQ Use Nav1.3
# [2] = target: hNav1.7 (Homo sapiens, UniProt Q15858); type: cell-based
# Chain of hNav1.7 (Q15858 whole entry, looked up): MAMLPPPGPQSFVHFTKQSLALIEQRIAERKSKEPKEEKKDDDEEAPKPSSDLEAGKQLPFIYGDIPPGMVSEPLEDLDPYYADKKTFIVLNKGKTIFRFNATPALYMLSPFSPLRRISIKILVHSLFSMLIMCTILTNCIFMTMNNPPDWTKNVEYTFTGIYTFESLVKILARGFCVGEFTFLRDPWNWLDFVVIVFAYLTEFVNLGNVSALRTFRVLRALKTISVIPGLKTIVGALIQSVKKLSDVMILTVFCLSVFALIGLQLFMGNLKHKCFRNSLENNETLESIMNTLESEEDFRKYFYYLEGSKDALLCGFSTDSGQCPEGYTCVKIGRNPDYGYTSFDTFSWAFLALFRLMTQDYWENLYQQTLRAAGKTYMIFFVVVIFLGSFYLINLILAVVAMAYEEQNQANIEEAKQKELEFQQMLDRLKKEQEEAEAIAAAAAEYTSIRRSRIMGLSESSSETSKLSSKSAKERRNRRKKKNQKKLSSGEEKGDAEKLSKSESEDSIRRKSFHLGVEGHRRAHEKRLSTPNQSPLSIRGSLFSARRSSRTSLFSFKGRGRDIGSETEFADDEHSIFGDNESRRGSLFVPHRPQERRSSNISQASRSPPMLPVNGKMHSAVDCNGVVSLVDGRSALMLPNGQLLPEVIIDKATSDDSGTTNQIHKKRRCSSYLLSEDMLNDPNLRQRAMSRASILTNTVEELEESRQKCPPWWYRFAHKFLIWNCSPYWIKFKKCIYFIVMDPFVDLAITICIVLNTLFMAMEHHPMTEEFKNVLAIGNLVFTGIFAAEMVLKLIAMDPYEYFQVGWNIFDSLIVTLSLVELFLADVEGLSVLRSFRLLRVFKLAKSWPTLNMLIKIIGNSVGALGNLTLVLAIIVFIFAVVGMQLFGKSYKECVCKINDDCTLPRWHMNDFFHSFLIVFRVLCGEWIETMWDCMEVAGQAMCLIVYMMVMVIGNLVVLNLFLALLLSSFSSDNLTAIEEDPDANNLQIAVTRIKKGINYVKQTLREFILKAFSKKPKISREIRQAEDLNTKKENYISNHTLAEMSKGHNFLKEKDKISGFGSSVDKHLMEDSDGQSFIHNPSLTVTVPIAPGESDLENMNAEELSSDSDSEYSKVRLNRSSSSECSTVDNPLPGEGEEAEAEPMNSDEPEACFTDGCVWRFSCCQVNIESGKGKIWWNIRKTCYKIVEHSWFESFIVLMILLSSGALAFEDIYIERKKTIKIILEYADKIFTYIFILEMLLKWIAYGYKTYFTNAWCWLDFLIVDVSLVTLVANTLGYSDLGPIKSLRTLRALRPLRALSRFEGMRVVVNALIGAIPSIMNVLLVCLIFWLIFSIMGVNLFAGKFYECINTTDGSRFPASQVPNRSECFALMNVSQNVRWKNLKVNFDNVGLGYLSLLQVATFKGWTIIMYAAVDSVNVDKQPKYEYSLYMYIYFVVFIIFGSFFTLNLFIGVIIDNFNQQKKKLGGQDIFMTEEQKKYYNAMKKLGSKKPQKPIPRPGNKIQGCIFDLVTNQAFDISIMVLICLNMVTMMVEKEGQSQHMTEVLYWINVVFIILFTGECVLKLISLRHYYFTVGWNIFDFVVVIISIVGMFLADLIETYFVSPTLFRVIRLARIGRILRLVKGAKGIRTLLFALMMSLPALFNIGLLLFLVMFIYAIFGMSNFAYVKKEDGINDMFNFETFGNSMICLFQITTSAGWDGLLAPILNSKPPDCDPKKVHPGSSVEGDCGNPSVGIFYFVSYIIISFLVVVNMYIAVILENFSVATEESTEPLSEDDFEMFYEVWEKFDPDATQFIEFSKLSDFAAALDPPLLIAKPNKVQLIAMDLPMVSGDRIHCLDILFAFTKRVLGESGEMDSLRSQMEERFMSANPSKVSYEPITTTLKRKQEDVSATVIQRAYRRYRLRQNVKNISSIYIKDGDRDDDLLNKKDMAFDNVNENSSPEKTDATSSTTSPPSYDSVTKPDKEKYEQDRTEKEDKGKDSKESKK
# [3] = target: hNav1.5 (Homo sapiens, UniProt Q14524)
# Chain of hNav1.5 (Q14524 whole entry, looked up): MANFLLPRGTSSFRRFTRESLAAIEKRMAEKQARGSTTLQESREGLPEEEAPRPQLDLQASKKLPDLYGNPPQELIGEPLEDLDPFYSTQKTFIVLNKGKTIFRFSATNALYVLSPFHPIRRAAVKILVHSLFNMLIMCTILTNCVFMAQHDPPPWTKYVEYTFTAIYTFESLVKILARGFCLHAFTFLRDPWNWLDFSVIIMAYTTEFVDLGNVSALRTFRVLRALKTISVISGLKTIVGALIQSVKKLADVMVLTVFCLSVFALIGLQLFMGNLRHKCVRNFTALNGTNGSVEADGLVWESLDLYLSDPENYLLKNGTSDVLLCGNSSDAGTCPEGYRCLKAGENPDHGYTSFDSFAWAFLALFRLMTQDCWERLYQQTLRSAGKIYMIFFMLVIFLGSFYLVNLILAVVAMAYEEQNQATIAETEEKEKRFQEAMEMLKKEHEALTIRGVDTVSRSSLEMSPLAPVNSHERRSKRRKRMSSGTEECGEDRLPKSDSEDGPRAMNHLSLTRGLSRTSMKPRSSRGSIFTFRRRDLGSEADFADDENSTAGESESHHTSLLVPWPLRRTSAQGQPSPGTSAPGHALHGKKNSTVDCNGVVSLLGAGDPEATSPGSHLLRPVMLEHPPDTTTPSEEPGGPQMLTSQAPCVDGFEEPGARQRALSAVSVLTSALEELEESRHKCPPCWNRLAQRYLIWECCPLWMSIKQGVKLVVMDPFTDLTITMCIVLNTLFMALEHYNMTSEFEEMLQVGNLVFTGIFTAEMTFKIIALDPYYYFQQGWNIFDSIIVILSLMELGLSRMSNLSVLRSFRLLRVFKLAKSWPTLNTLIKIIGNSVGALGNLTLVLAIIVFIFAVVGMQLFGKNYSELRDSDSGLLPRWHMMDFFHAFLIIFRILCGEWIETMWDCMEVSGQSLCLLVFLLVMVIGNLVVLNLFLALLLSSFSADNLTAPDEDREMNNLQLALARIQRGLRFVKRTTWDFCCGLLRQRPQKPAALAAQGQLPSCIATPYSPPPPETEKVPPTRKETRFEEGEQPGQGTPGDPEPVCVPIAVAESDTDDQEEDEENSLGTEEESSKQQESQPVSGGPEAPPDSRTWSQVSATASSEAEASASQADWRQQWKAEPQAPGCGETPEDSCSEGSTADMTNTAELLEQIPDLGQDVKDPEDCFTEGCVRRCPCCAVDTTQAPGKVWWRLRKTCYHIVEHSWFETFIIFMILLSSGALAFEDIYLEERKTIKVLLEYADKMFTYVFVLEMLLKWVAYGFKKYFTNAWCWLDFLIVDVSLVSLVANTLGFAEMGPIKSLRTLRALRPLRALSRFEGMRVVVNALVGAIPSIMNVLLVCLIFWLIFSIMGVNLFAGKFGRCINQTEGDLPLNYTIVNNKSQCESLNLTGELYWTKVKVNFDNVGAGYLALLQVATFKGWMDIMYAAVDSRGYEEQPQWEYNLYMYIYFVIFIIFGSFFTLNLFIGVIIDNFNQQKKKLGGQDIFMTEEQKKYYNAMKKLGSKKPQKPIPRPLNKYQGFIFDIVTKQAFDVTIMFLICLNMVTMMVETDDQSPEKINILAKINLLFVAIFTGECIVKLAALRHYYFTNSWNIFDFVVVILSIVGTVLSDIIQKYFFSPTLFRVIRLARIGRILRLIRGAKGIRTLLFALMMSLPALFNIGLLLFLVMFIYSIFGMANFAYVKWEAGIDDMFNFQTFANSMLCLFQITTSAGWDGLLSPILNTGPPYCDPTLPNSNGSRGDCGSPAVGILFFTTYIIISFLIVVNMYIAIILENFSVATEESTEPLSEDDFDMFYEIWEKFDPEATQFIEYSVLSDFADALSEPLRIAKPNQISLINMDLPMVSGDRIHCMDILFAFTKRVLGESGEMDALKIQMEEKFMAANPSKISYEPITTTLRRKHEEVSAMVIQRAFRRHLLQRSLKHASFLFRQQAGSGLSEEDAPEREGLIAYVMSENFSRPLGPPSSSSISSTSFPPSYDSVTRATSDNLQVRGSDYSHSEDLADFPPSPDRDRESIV
# [4] = IonWorks Quattro, use-dependent block, hNav1.7, read-out: IWQ Use Nav1.7
# [5] = IonWorks Quattro, use-dependent block, hNav1.5, read-out: IWQ Use Nav1.5
# [6] = IonWorks Quattro, Use, read-out: IWQ Use Nav1.7
# [7] = IonWorks Quattro, Use, read-out: IWQ Use Nav1.5
SMILES,"IC50 ([1]; use-dependent block, hNav1.3)","IC50 [2, 4]",IC50 ([3]; IWQ Use Nav1.5 (μM)),"IC50 [3, 5]",IC50 [2],IC50 ([1]; Use),"IC50 [2, 6]","IC50 [3, 7]"
"CC[C@H](C)[C@@H]1NC(=O)[C@@H]2CSSC[C@@H]3NC(=O)[C@H](C(C)C)NC(=O)[C@H](CC(C)C)NC(=O)[C@H](CC(N)=O)NC(=O)[C@@H]4CCCN4C(=O)[C@H](CCCNC(=N)N)NC(=O)[C@H](CSSC[C@H](NC(=O)[C@@H](N)CC(=O)O)C(=O)N[C@@H](CC(C)C)C(=O)NCC(=O)N[C@@H](C)C(=O)N[C@@H](CCSC)C(=O)N[C@@H](CCCNC(=N)N)C(=O)N[C@@H](CCCCN)C(=O)N2)NC(=O)[C@H](CSSC[C@@H](C(=O)N[C@@H](CCCCN)C(=O)N[C@@H](Cc2ccc(O)cc2)C(=O)N[C@@H](Cc2cccc4ccccc24)C(=O)N[C@@H](Cc2ccccc2)C(N)=O)NC(=O)[C@H](Cc2c[nH]c4ccccc24)NC(=O)[C@H](CCCCN)NC(=O)[C@H](Cc2c[nH]cn2)NC(=O)[C@H]([C@@H](C)O)NC(=O)[C@H](CCCNC(=N)N)NC(=O)[C@H](CO)NC3=O)NC(=O)[C@H](CCCCN)NC(=O)[C@H](CC(=O)O)NC(=O)[C@H](CC(N)=O)NC(=O)[C@H](CC(=O)O)NC(=O)[C@@H]2CCCN2C1=O [compound 258] (H-DCLGAMRKCIPDNDKCCRPNLVCSRTHKWCKY[1Nal]F-NH2; disulfide 2-17, 9-23, 16-30)",800 nM,380 nM,5 µM,–,–,–,–,–
"CC[C@H](C)[C@@H]1NC(=O)[C@@H]2CSSC[C@@H]3NC(=O)[C@H](C(C)C)NC(=O)[C@H](CC(C)C)NC(=O)[C@H](CC(N)=O)NC(=O)[C@@H]4CCCN4C(=O)[C@H](CCCNC(=N)N)NC(=O)[C@H](CSSC[C@H](NC(=O)[C@@H](N)CC(=O)O)C(=O)N[C@@H](CC(C)C)C(=O)NCC(=O)N[C@@H](C)C(=O)N[C@@H](CCSC)C(=O)N[C@@H](CCCNC(=N)N)C(=O)N[C@@H](CCCCN)C(=O)N2)NC(=O)[C@H](CSSC[C@@H](C(=O)N[C@@H](CCCCN)C(=O)N[C@@H](Cc2ccc(O)cc2)C(=O)N[C@H](C(=O)N[C@@H](Cc2ccccc2)C(N)=O)C(C)C)NC(=O)[C@H](Cc2c[nH]c4ccccc24)NC(=O)[C@H](CCCNC(=N)N)NC(=O)[C@H](Cc2c[nH]cn2)NC(=O)[C@H]([C@@H](C)O)NC(=O)[C@H](CCCNC(=N)N)NC(=O)[C@H](CO)NC3=O)NC(=O)[C@H](CCCCN)NC(=O)[C@H](CC(=O)O)NC(=O)[C@H](CC(N)=O)NC(=O)[C@H](CC(=O)O)NC(=O)[C@@H]2CCCN2C1=O [compound 260] (H-DCLGAMRKCIPDNDKCCRPNLVCSRTHRWCKYVF-NH2; disulfide 2-17, 9-23, 16-30)",240 nM,330 nM,–,5 µM,–,–,–,–
"CC[C@H](C)[C@@H]1NC(=O)[C@@H]2CSSC[C@@H]3NC(=O)[C@H](C(C)C)NC(=O)[C@H](CC(C)C)NC(=O)[C@H](CC(N)=O)NC(=O)[C@@H]4CCCN4C(=O)[C@H](CCCNC(=N)N)NC(=O)[C@H](CSSC[C@H](NC(=O)[C@@H](N)CC(=O)O)C(=O)N[C@@H](CC(C)C)C(=O)NCC(=O)N[C@@H](C)C(=O)N[C@@H](Cc4c[nH]c5ccccc45)C(=O)N[C@@H](CCCNC(=N)N)C(=O)N[C@@H](CCCCN)C(=O)N2)NC(=O)[C@H](CSSC[C@@H](C(=O)N[C@@H](CCCCN)C(=O)N[C@@H](Cc2ccc(O)cc2)C(=O)N[C@H](C(=O)N[C@@H](Cc2ccccc2)C(N)=O)C(C)C)NC(=O)[C@H](Cc2c[nH]c4ccccc24)NC(=O)[C@H](CCCCN)NC(=O)[C@H](Cc2cnc[nH]2)NC(=O)[C@H]([C@@H](C)O)NC(=O)[C@H](CCCNC(=N)N)NC(=O)[C@H](CO)NC3=O)NC(=O)[C@H](CCCCN)NC(=O)[C@H](CC(=O)O)NC(=O)[C@H](CC(N)=O)NC(=O)[C@H](CC(=O)O)NC(=O)[C@@H]2CCCN2C1=O [compound 261] (H-DCLGAWRKCIPDNDKCCRPNLVCSRTHKWCKYVF-NH2; disulfide 2-17, 9-23, 16-30)",670 nM,–,–,5 µM,1010 nM,–,–,–
"CC[C@H](C)[C@@H]1NC(=O)[C@@H]2CSSC[C@@H]3NC(=O)[C@H](C(C)C)NC(=O)[C@H](CC(C)C)NC(=O)[C@H](CC(N)=O)NC(=O)[C@@H]4CCCN4C(=O)[C@H](CCCNC(=N)N)NC(=O)[C@H](CSSC[C@H](NC(=O)[C@@H](N)CC(=O)O)C(=O)N[C@@H](CC(C)C)C(=O)NCC(=O)N[C@@H](C)C(=O)N[C@@H](Cc4ccccc4)C(=O)N[C@@H](CCCNC(=N)N)C(=O)N[C@@H](CCCCN)C(=O)N2)NC(=O)[C@H](CSSC[C@@H](C(=O)N[C@@H](CCCCN)C(=O)N[C@@H](Cc2ccc(O)cc2)C(=O)N[C@H](C(=O)N[C@@H](Cc2ccccc2)C(N)=O)C(C)C)NC(=O)[C@H](Cc2c[nH]c4ccccc24)NC(=O)[C@H](CCCCN)NC(=O)[C@H](Cc2cnc[nH]2)NC(=O)[C@H](CC(C)C)NC(=O)[C@H](CCCNC(=N)N)NC(=O)[C@H](CO)NC3=O)NC(=O)[C@H](CCCCN)NC(=O)[C@H](CC(=O)O)NC(=O)[C@H](CC(N)=O)NC(=O)[C@H](CC(=O)O)NC(=O)[C@@H]2CCCN2C1=O [compound 263] (H-DCLGAFRKCIPDNDKCCRPNLVCSRLHKWCKYVF-NH2; disulfide 2-17, 9-23, 16-30)",50 nM,80 nM,5 µM,–,–,–,–,–
"CSCC[C@@H]1NC(=O)[C@H](Cc2ccccc2)NC(=O)CNC(=O)[C@H](CC(C)C)NC(=O)[C@@H](NC(=O)[C@@H](N)CC(=O)O)CSSC[C@@H]2NC(=O)[C@@H]3CSSC[C@@H](C(=O)N[C@@H](CCCCN)C(=O)N[C@@H](Cc4ccc(O)cc4)C(=O)N[C@H](C(=O)N[C@@H](Cc4ccccc4)C(N)=O)C(C)C)NC(=O)[C@H](Cc4c[nH]c5ccccc45)NC(=O)[C@H](CCCCN)NC(=O)[C@H](Cc4cnc[nH]4)NC(=O)[C@H]([C@@H](C)O)NC(=O)[C@H](CCCNC(=N)N)NC(=O)[C@H](CO)NC(=O)[C@H](CSSC[C@H](NC(=O)[C@H](CCCCN)NC(=O)[C@H](CCCNC(=N)N)NC1=O)C(=O)N[C@@H](CC(C)C)C(=O)N1CCC[C@H]1C(=O)N[C@@H](CC(=O)O)C(=O)N[C@@H](CC(N)=O)C(=O)N[C@@H](CC(=O)O)C(=O)N[C@@H](CCCCN)C(=O)N3)NC(=O)[C@H](C(C)C)NC(=O)[C@H](CC(C)C)NC(=O)[C@H](CC(N)=O)NC(=O)[C@@H]1CCCN1C(=O)[C@H](CCCNC(=N)N)NC2=O [compound 303] (H-DCLGFMRKCLPDNDKCCRPNLVCSRTHKWCKYVF-NH2; disulfide 2-17, 9-23, 16-30)",–,–,–,–,–,80 nM,130 nM,8.13 µM
"CSCC[C@@H]1NC(=O)[C@H](Cc2ccccc2)NC(=O)CNC(=O)[C@H](CC(C)C)NC(=O)[C@@H](NC(=O)[C@@H](N)CC(=O)O)CSSC[C@@H]2NC(=O)[C@@H]3CSSC[C@@H](C(=O)N[C@@H](CCCCN)C(=O)N[C@@H](Cc4ccc(O)cc4)C(=O)N[C@H](C(=O)N[C@@H](Cc4ccccc4)C(N)=O)C(C)C)NC(=O)[C@H](Cc4c[nH]c5ccccc45)NC(=O)[C@H](CCCCN)NC(=O)[C@H](Cc4c[nH]cn4)NC(=O)[C@H]([C@@H](C)O)NC(=O)[C@H](CCCNC(=N)N)NC(=O)[C@H](CO)NC(=O)[C@H](CSSC[C@H](NC(=O)[C@H](CCCCN)NC(=O)[C@H](CCCNC(=N)N)NC1=O)C(=O)N1CCC[C@H]1C(=O)N1CCC[C@H]1C(=O)N[C@@H](CC(=O)O)C(=O)N[C@@H](CC(N)=O)C(=O)N[C@@H](CC(=O)O)C(=O)N[C@@H](CCCCN)C(=O)N3)NC(=O)[C@H](C(C)C)NC(=O)[C@H](CC(C)C)NC(=O)[C@H](CC(N)=O)NC(=O)[C@@H]1CCCN1C(=O)[C@H](CCCNC(=N)N)NC2=O [compound 308] (H-DCLGFMRKCPPDNDKCCRPNLVCSRTHKWCKYVF-NH2; disulfide 2-17, 9-23, 16-30)",–,–,–,–,–,240 nM,400 nM,> 5 µM
CSCC[C@@H]1NC(=O)[C@H](Cc2ccccc2)NC(=O)CNC(=O)[C@H](CC(C)C)NC(=O)[C@@H](NC(=O)[C@@H](N)CC(=O)O)CSSC[C@@H]2NC(=O)[C@@H]3CSSC[C@@H](C(=O)N[C@@H](CCCCN)C(=O)N[C@@H](Cc4ccc(O)cc4)C(=O)N[C@H](C(=O)N[C@@H](Cc4ccccc4)C(N)=O)C(C)C)NC(=O)[C@H](Cc4c[nH]c5ccccc45)NC(=O)[C@H](CCCCN)NC(=O)[C@H](Cc4c[nH]cn4)NC(=O)[C@H]([C@@H](C)O)NC(=O)[C@H](CCCNC(=N)N)NC(=O)[C@H](CO)NC(=O)[C@H](CSSC[C@H](NC(=O)[C@H](CCCCN)NC(=O)[C@H](CCCNC(=N)N)NC1=O)C(=O)N[C@@H](Cc1ccc(C(=O)O)cc1)C(=O)N1CCC[C@H]1C(=O)N[C@@H](CC(=O)O)C(=O)N[C@@H](CC(N)=O)C(=O)N[C@@H](CC(=O)O)C(=O)N[C@@H](CCCCN)C(=O)N3)NC(=O)[C@H](C(C)C)NC(=O)[C@H](CC(C)C)NC(=O)[C@H](CC(N)=O)NC(=O)[C@@H]1CCCN1C(=O)[C@H](CCCNC(=N)N)NC2=O [compound 310],–,–,–,–,–,230 nM,280 nM,6.87 µM
CSCC[C@@H]1NC(=O)[C@H](Cc2ccccc2)NC(=O)CNC(=O)[C@H](CC(C)C)NC(=O)[C@@H](NC(=O)[C@@H](N)CC(=O)O)CSSC[C@@H]2NC(=O)[C@@H]3CSSC[C@@H](C(=O)N[C@@H](CCCCN)C(=O)N[C@@H](Cc4ccc(O)cc4)C(=O)N[C@H](C(=O)N[C@@H](Cc4ccccc4)C(N)=O)C(C)C)NC(=O)[C@H](Cc4c[nH]c5ccccc45)NC(=O)[C@H](CCCCN)NC(=O)[C@H](Cc4c[nH]cn4)NC(=O)[C@H]([C@@H](C)O)NC(=O)[C@H](CCCNC(=N)N)NC(=O)[C@H](CO)NC(=O)[C@H](CSSC[C@H](NC(=O)[C@H](CCCCN)NC(=O)[C@H](CCCNC(=N)N)NC1=O)C(=O)N[C@@H](Cc1ccccn1)C(=O)N1CCC[C@H]1C(=O)N[C@@H](CC(=O)O)C(=O)N[C@@H](CC(N)=O)C(=O)N[C@@H](CC(=O)O)C(=O)N[C@@H](CCCCN)C(=O)N3)NC(=O)[C@H](C(C)C)NC(=O)[C@H](CC(C)C)NC(=O)[C@H](CC(N)=O)NC(=O)[C@@H]1CCCN1C(=O)[C@H](CCCNC(=N)N)NC2=O [compound 311],–,–,–,–,–,40 nM,190 nM,8.83 µM
